Among the data in US12202835B2, “Substituted aromatic ring-linked dioxinoquinazolines and dioxinoquinolines as kinase inhibitors” (BEIJING SCITECH-MQ PHARMACEUTICALS LIMITED, priority 2018, dated 2025) are IC50 values, retold here.

The target in one assay is TRKA kinase (Homo sapiens (Human), UniProt P04629). As to the kind of experiment: Assay of small molecular compounds for inhibiting the activity of TRKA kinase (LANCE TR-FRET). It is filed as biochemical. The method in brief: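 LANCE TR-FRET with ULight-TK peptide; compounds pre-incubated 5 min with TRKA (2× solution 2 nM), then substrate/ATP added (4× mix: 400 nM peptide, 40 μM ATP). Reaction 60 min at room temperature in dark, 1% DMSO final; stopped, detection developed 60 min, signal read.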

Another assay concerns the target c-MET kinase (Homo sapiens (Human), UniProt P08581). As to the kind of experiment: Assay of small molecular compounds for inhibiting the activity of c-MET kinase (LANCE TR-FRET). Type of assay: biochemical. As to conditions: read-out: CMET IC50. Summed up:
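LANCE TR-FRET assay with c-MET at 1 nM final after a 5 min room-temperature preincubation with compound (11-point, 3-fold series, 2500–0.042 nM final, 4% DMSO). ULight-JAK-1 (Tyr1023) peptide (100 nM final) and ATP (10 μM final) reacted 60 min in the dark. Inhibition was taken relative to controls, then IC50 fitted.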
On the technique in general: In TR-FRET formats the signal depends on donor and acceptor labels being close together.

The target of another assay is MER kinase (Homo sapiens (Human), UniProt Q12866). As to the kind of experiment: Assay of small molecular compounds for inhibiting the activity of MER kinase (LANCE TR-FRET). Type of assay: biochemical. Summed up: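 MER kinase preincubated 5 min at RT with compound (11 points, 0.042-2500 nM final), then ULight-poly GT and ATP added (4× stocks 200 nM and 20 μM) for 60 min at RT, 1% DMSO. Phosphorylation detected by LANCE TR-FRET; IC50 from % inhibition versus controls.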

A further assay deals with Ba/F3 LMNA-NTRK1 cells. As to the kind of experiment: Assay for inhibiting the proliferation of Ba/F3 LMNA-NTRK1 cells (CCK-8). It is filed as cell-based. As to conditions: Mus musculus, BaF3. How it is done: In particular, the method of the assay of small molecular compounds for inhibiting cell proliferation is as follows: • 1. Cells cultured to a logarithmic growth phase (adherent cells need to be digested with trypsin and neutralized) were taken, pipetted evenly, transferred to a 15 mL centrifuge tube, and centrifuged at 1000 rpm at room temperature for 4 minutes; • 2. The supernatant was discarded; 5 mL of complete medium was added and pipetted evenly; 10 μL of cell suspension was taken out, mixed well with 10 μL of 0.4% trypan blue, and counted under a cell counter; the proportion of living cells was ensured to be above 90%; • 3. 80 μL of cell suspension per well was seeded into a 96-well plate according to the conditions shown in the attached table, and cultured overnight; in the outer 36 wells of the 96-well plate, no cells were added but only sterile water was added; only the inner 60 wells were used for cell assay and control; • 4. […] 20 μL of the corresponding compounds with different concentration gradients were added to each well of assay wells of the 96-well plate; 20 μL of complete medium was added to positive and negative control wells and shaken well; and the final concentration of DMSO in each well was 0.25%; • 6. After 72 hours of incubation, 10 μL of CCK-8 reagent was added to each well and further incubated at 37° C. for 1-2 hours; and the OD value was read at 450 nm; • 7. Cell survival rate (%)=[(As−Ab)/(Ac−Ab)]*100% • As: Assay well (medium containing cells, CCK-8, compound), • Ac: Control well (medium containing cells, CCK-8), • Ab: Blank well (CCK-8, medium without cell and compound), • 8. The values were imported into Graphpad Prism 5 software for IC50 calculation.

The test system of another assay is Ba/F3-AXL cells. Put plainly: Assay for inhibiting the proliferation of Ba/F3-AXL cells (CCK-8). As to conditions: 72 hours of incubation, medium with 100 ng/mL hGas6, CCK-8. Type of assay: cell-based. How it is done:
The values were then imported into Graphpad Prism 5 software for curve fitting, and IC50 was calculated.

Another assay concerns the target VEGFR-2 kinase (Homo sapiens (Human), UniProt P35968). As to the kind of experiment: Assay of small molecular compounds for inhibiting the activity of VEGFR-2 kinase (LANCE TR-FRET). It is filed as biochemical. As to conditions: read-out: VEGFR2 IC50. The protocol: The assay is based on the LANCE TR-FRET technology of Perkin Elmer Inc., and the assay method is as follows: • 1. Dilution of compounds: a total of 11 concentrations were obtained using a 3-fold gradient dilution from the highest concentration of 2500 nM (the maximum final concentration of the drug used in this assay was 2500 nM, and the minimum final concentration was 0.042 nM). • 2. 2.5 μL of the gradient-diluted compounds were taken with a transfer pipette to a 384-well plate. • 3. Addition of enzyme: 5 μL of 2×VEGFR2 kinase solution (with a concentration of 0.5 nM) was taken with a transfer pipette to the corresponding reaction well of the 384-well plate, mixed well and pre-reacted at room temperature for 30 minutes. • 4. 2.5 μL 4× Ultra ULight™-JAK-1 (Tyr1023) Peptide (with a concentration of 200 nM)/ATP (with a concentration of 40 μM) mixture was taken with a transfer pipette to the corresponding reaction well of the 384-well plate. • 5. Negative control: 2.5 μL/well 4× substrate/ATP mixture and 7.5 μL 1× Kinase Assay Buffer were added to the wells of the 384-well plate. • 6. Positive control: 2.5 μL/well 4× substrate/ATP mixture, 2.5 μL/well 1× Kinase Assay Buffer containing 16% DMSO, and 5 μL/well 2×VEGFR-2 kinase solution were added to the 384-well plate. The final concentration of DMSO in the reaction system was 4%. • 7. The mixture was mixed well and then centrifuged and reacted at room temperature in dark for 60 min. • 8. Termination of the enzymatic reaction: 5 μL of 4× stop solution was taken with a transfer pipette to the wells of the 384-well plate, mixed and then centrifuged, and reacted at room temperature for 5 min. • 9. Development of the reaction: 5 μL of 4× detection solution was taken with a transfer pipette to the wells of the 384-well plate for color development, and the mixture was mixed and then centrifuged and reacted at room temperature for 60 min. • 10. The 384-well plate was placed into the Envision plate reader and the signal was detected using the appropriate program. • 11. Analysis and processing of the raw data: The drug concentrations and the corresponding inhibition rates were input into GraphPad Prism5 for calculation, and the inhibition rate of the compounds were calculated as follows: inhibition rate (%)=(reading of positive well−reading of experimental well)/(reading of positive control well−reading of negative control well)×100%. Processing with GraphPad Prism5 software yielded the corresponding IC50 values (the concentration of the compound at which 50% of the highest inhibition of the enzyme is achieved).

Chain of MER kinase (Q12866 21-999): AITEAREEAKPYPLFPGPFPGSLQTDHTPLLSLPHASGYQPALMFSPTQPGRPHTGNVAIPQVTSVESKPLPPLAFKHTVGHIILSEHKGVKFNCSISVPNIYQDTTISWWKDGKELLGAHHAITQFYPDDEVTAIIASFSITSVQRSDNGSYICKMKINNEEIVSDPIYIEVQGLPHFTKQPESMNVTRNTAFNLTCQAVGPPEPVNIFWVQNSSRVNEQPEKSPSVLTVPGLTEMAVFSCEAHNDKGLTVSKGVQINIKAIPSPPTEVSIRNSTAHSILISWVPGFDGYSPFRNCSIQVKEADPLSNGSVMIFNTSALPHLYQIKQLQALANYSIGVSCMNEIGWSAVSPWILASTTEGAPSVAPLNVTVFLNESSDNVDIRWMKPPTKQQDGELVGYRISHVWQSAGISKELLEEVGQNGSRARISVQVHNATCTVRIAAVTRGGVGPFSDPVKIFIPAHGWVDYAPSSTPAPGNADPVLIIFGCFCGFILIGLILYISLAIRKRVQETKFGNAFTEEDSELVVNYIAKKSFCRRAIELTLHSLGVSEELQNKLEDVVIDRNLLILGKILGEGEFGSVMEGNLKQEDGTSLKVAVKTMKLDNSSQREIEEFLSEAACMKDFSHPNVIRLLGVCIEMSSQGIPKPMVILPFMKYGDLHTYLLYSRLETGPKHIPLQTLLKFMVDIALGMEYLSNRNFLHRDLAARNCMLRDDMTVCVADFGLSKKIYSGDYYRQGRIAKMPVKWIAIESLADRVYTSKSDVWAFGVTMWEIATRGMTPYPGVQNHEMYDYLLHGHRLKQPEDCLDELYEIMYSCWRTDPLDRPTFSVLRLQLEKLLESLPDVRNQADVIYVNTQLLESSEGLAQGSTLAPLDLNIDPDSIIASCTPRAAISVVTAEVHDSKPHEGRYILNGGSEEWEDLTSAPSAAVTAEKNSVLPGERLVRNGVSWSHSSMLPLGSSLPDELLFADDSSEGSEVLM
Chain of TRKA kinase (P04629 33-796): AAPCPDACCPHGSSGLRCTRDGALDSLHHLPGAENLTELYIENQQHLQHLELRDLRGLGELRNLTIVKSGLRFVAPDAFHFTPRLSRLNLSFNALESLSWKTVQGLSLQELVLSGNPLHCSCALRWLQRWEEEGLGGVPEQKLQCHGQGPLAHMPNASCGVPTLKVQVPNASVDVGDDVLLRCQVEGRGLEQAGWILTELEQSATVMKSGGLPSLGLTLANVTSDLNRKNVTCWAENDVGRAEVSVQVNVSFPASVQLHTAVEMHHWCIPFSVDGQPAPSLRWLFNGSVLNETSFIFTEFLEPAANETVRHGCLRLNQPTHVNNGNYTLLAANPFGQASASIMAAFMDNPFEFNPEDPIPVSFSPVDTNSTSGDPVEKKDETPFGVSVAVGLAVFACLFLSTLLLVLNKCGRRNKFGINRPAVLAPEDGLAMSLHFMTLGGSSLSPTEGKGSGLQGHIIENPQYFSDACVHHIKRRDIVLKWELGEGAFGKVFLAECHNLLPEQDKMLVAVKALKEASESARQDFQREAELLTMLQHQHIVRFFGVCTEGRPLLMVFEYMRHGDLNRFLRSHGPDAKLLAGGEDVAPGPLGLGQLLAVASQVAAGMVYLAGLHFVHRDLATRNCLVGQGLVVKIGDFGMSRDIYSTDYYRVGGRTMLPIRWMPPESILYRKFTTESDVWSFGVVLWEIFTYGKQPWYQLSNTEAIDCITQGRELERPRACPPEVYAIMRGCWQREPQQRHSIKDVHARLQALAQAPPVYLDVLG
Chain of VEGFR-2 kinase (P35968 20-1356): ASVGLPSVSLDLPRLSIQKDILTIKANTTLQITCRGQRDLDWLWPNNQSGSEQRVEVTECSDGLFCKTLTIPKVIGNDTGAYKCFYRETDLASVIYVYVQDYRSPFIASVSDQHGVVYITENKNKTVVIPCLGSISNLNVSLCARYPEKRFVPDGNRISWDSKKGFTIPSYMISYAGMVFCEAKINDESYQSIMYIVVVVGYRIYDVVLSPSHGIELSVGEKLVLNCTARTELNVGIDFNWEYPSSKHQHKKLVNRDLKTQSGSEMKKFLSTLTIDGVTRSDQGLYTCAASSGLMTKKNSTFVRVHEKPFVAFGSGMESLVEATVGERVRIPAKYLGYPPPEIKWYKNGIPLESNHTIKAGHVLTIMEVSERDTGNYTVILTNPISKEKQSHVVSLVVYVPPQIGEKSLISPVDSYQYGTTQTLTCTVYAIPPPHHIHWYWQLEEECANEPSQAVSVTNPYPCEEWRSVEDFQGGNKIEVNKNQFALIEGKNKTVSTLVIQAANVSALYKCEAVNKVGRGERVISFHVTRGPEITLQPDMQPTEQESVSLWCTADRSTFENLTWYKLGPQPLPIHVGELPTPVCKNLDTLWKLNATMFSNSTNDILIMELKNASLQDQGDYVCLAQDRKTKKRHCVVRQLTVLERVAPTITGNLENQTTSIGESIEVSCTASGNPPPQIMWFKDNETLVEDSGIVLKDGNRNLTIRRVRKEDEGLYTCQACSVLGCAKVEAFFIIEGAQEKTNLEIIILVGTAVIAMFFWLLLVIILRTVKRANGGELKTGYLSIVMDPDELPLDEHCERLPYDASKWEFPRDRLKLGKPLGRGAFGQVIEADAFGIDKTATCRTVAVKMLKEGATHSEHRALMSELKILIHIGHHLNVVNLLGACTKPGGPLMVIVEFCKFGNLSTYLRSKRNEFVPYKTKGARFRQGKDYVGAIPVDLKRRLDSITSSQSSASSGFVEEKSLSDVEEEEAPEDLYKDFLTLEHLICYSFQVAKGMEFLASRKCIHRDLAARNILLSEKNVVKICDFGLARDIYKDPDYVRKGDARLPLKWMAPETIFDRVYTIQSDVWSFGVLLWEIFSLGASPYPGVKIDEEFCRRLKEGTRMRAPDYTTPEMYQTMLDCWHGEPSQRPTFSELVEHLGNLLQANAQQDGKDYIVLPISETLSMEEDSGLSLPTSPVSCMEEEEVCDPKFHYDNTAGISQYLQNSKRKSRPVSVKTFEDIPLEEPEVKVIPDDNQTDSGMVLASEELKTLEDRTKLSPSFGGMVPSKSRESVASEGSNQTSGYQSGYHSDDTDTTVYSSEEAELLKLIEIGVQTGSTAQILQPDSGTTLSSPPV
Chain of c-MET kinase (P08581 25-1390): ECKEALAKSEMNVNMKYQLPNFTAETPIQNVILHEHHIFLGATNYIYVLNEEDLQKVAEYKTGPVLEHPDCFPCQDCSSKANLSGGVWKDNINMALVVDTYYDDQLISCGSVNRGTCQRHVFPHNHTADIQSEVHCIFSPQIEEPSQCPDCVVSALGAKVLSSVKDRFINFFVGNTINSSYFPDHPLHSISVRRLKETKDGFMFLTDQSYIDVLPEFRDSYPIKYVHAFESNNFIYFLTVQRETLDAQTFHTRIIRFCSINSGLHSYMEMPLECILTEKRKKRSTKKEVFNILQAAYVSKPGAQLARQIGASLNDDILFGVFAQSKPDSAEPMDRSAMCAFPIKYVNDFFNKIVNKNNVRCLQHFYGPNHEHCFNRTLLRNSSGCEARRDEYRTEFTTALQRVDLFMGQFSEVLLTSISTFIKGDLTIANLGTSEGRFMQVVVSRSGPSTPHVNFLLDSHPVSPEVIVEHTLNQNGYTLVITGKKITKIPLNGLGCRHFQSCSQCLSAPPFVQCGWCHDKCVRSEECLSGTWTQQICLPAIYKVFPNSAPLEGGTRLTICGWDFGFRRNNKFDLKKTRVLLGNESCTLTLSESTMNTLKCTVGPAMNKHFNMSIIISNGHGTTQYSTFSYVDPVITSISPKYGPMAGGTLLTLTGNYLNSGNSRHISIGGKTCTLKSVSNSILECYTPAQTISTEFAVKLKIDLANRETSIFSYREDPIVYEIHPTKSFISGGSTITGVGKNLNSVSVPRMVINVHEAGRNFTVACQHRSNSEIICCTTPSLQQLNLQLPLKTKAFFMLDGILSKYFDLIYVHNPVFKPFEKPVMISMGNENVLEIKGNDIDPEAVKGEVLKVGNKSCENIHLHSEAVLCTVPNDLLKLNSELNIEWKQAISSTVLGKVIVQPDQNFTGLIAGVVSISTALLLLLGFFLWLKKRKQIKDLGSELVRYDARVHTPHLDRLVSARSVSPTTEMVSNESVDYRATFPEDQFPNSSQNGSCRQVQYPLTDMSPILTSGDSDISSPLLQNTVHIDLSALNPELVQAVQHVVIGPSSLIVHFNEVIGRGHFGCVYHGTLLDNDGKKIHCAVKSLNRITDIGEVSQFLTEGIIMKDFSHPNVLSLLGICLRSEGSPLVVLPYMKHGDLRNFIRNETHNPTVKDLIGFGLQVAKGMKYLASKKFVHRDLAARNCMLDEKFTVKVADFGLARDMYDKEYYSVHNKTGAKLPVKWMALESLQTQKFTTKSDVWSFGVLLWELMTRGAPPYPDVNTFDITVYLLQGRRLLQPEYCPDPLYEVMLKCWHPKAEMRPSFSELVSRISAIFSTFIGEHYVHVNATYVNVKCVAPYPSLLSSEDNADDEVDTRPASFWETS

As for `COc1cn(-c2ccc(F)cc2C)nc1C(=O)Nc1ccc(Oc2ccnc3cc(OC)c4c(c23)OCCO4)c(F)c1` [Example 24, 1-(4-fluoro-2-methylphenyl)-N-(3-fluoro-4-((5-methoxy-2,3-dihydro-[1,4]dioxino[2,3-f]quinolin-10-yl)oxy)phenyl)-4-methoxy-1H-pyrazole-3-carboxamide], the IC50 (commonly the midpoint of a concentration-inhibition curve) against TRKA kinase was less than 50 nM; at c-MET kinase, 50 to 500 nM; on MER kinase, 50 to 500 nM; in the assay with Ba/F3 LMNA-NTRK1 cells it was less than 50 nM.

Consider `CC(C)n1cc(C(=O)Nc2ccc(Oc3ccnc4cc(OCC#N)c5c(c34)OCCO5)c(F)c2)c(=O)n(-c2ccc(F)cc2)c1=O` [Example 81, N-(3-fluoro-4-((5-(cyanomethoxy)-2,3-dihydro-[1,4]dioxino[2,3-f]quinolin-10-yl)oxy)phenyl)-3-(4-fluorophenyl)-1-isopropyl-2,4-dioxo-1,2,3,4-tetrahydropyrimidine-5-carboxamide], for which the IC50 against TRKA kinase is 500 to 5000 nM; at c-MET kinase it was 50 to 500 nM; at MER kinase, not above 50 nM; in the assay with Ba/F3-AXL cells, less than 50 nM.

Take `CC(C)n1cc(C(=O)Nc2ccc(Oc3ccnc4cc(OCCCC#N)c5c(c34)OCCO5)c(F)c2)c(=O)n(-c2ccc(F)cc2)c1=O` [Example 82, N-(3-fluoro-4-((5-(3-cyanopropoxy)-2,3-dihydro-[1,4]dioxino[2,3-f]quinolin-10-yl)oxy)phenyl)-3-(4-fluorophenyl)-1-isopropyl-2,4-dioxo-1,2,3,4-tetrahydropyrimidine-5-carboxamide]: the concentration for half-maximal inhibition (IC50) at TRKA kinase is 50 to 500 nM; on c-MET kinase, 50 to 500 nM; against MER kinase, not above 50 nM; with Ba/F3-AXL cells, less than 50 nM.

On to `CCOc1cc2nccc(Oc3ccc(NC(=O)c4cn(C(C)C)c(=O)n(-c5ccc(F)cc5)c4=O)cc3F)c2c2c1OCCO2` [Example 87, N-(3-fluoro-4-((5-ethoxy-2,3-dihydro-[1,4]dioxino[2,3-f]quinolin-10-yl)oxy)phenyl)-3-(4-fluorophenyl)-1-isopropyl-2,4-dioxo-1,2,3,4-tetrahydropyrimidine-5-carboxamide], for which the 50% inhibitory concentration (IC50) at TRKA kinase is 50 to 500 nM; on c-MET kinase, 50 to 500 nM; against MER kinase, not above 50 nM; with Ba/F3-AXL cells, less than 50 nM.

With `COc1cc2nccc(Oc3ccc(NC(=O)c4cn(CC(=O)OC(C)(C)C)c(=O)n(-c5ccc(F)cc5)c4=O)cc3F)c2c2c1OCCO2` [Example 103, tert-butyl 2-(5-((3-fluoro-4-((5-methoxy-2,3-dihydro-[1,4]dioxino[2,3-f]quinolin-10-yl)oxy)phenyl)carbamoyl)-3-(4-fluorophenyl)-2,4-dioxo-3,4-dihydropyrimidin-1(2H)-yl)acetate], the values for the IC50 against MER kinase and on VEGFR-2 kinase were 50 to 500 nM and 500 to 5000 nM, respectively.

In the case of `COc1cc2nccc(Oc3ccc(NC(=O)c4cn(C(C)C)c(=O)n(-c5cccc(F)c5)c4=O)cc3F)c2c2c1OCCO2` [Example 109, N-(3-fluoro-4-((5-methoxy-2,3-dihydro-[1,4]dioxino[2,3-f]quinolin-10-yl)oxy)phenyl)-3-(3-fluorophenyl)-1-isopropyl-2,4-dioxo-1,2,3,4-tetrahydropyrimidine-5-carboxamide], the half-maximal inhibitory concentration (IC50) at TRKA kinase was 500 to 5000 nM; on c-MET kinase, not above 50 nM; against MER kinase, not above 50 nM; with Ba/F3-AXL cells, less than 50 nM.

`CCOc1ccn(C2CCCCC2)c(=O)c1C(=O)Nc1ccc(Oc2ccnc3cc(OC)c4c(c23)OCCO4)c(F)c1` [Example 119, 1-cyclohexyl-4-ethoxy-N-(3-fluoro-4-((5-methoxy-2,3-dihydro-[1,4]dioxino[2,3-f]quinolin-1 0-yl)oxy)phenyl)-2-oxo-1,2-dihydropyridine-3-carboxamide]: the concentration for half-maximal inhibition (IC50) against TRKA kinase is more than 5000 nM; against MER kinase, 500 to 5000 nM; at VEGFR-2 kinase it was more than 5000 nM.

With `N#CCCCOc1cc2nccc(Oc3ccc(NC(=O)c4cccn(-c5ccc(F)cc5)c4=O)c(Cl)c3)c2c2c1OCCO2` [Example 131, N-(2-chloro-4-((5-(3-cyanopropoxy)-2,3-dihydro-[1,4]dioxino[2,3-f]quinolin-10-yl)oxy)phenyl)-1-(4-fluorophenyl)-2-oxo-1,2-dihydropyridine-3-carboxamide], the half-inhibitory concentration (IC50) is less than 50 nM against TRKA kinase, not above 50 nM at c-MET kinase, 50 to 500 nM at MER kinase and less than 50 nM in the assay with Ba/F3 LMNA-NTRK1 cells.

As for `COc1ccn(-c2ccc(F)cc2)c(=O)c1C(=O)Nc1ccc(Oc2ccnc3cc(OCCCN4CCOCC4)c4c(c23)OCCO4)cc1Cl` [Example 144, N-(2-chloro-4-((5-(3-morpholinopropoxy)-2,3-dihydro-[1,4]dioxino[2,3-f]quinolin-10-yl)oxy)phenyl)-1-(4-fluorophenyl)-4-methoxy-2-oxo-1,2-dihydropyridine-3-carboxamide], the half-maximal inhibitory concentration (IC50) against TRKA kinase is less than 50 nM; on c-MET kinase it was not above 50 nM; at VEGFR-2 kinase, 50 to 500 nM; in the assay with Ba/F3 LMNA-NTRK1 cells it was less than 50 nM.

For `Cn1cc(C(=O)Nc2ccc(Oc3ccnc4cc(OC5CC5)c5c(c34)OCCO5)cc2)c(=O)n(-c2ccc(F)cc2)c1=O` [Example 151, N-(4-((5-cyclopropyloxy-2,3-dihydro-[1,4]dioxino[2,3-f]quinolin-10-yl)oxy)phenyl)-3-(4-fluorophenyl)-1-methyl-2,4-dioxo-1,2,3,4-tetrahydropyrimidine-5-carboxamide], the figures for the IC50 against TRKA kinase, on c-MET kinase and on VEGFR-2 kinase were 500 to 5000 nM, not above 50 nM and 500 to 5000 nM, respectively.

As to `CCn1cc(C(=O)Nc2ccc(Oc3ccnc4cc(OC5CC5)c5c(c34)OCCO5)cc2)c(=O)n(-c2ccc(F)cc2)c1=O` [Example 152, N-(4-((5-cyclopropyloxy-2,3-dihydro-[1,4]dioxino[2,3-f]quinolin-10-yl)oxy)phenyl)-3-(4-fluorophenyl)-1-ethyl-2,4-dioxo-1,2,3,4-tetrahydropyrimidine-5-carboxamide], the values for the 50% inhibitory concentration (IC50) at TRKA kinase, on c-MET kinase and on VEGFR-2 kinase were more than 5000 nM, not above 50 nM and more than 5000 nM, respectively.
